From patent US20240400560A1, “BICYCLIC HETEROCYCLIC DERIVATIVE HAVING VIRAL GROWTH INHIBITORY ACTIVITY AND PHARMACEUTICAL COMPOSITION CONTAINING SAME” (Shionogi & Co., Ltd., priority 2021, published 2024)
Where two headings read alike, the source gives them in different places.

What was measured:
SARS-CoV-2 = test: Inhibitory activity of cytopathic effect (CPE) in HEK293T/ACE2-TMPRSS2 cells; assay type: cell-based; conditions: Severe acute respiratory syndrome coronavirus 2, HEK-293T, 72 h
SARS-CoV-2 3CL protease = SARS-CoV-2 3CL protease (Severe acute respiratory syndrome coronavirus 2, UniProt P0DTD1); test: Inhibitory activity test against SARS-CoV-2 3CL proteases; assay type: biochemical
[1] = HEK293T/ACE2-TMPRSS2 cells, cultured 3 days, CellTiter-Glo 2.0 luminescence, read-out: EC50 (50% SARS-CoV-2 infected cell death inhibitory concentration)
[2] = read-out: IC50 (50% SARS-CoV-2 3CL protease inhibitory concentration)
[3] = 50% SARS-CoV-2 infected cell death inhibitory concentration, HEK293T/ACE2-TMPRSS2 cells, CellTiter-Glo 2.0 after 3 days culture, read-out: EC50
[4] = IC50 (50% SARS-CoV-2 3CL protease inhibitory concentration)

Structure (SMILES) | EC50 (SARS-CoV-2; [1]) | IC50 (SARS-CoV-2 3CL protease; [2]) | other results
COc1cc(-c2c(Cl)ccc3c2CC(=O)N3C)cc2c1c(=O)n(Cc1ncn(C)n1)c(=O)n2Cc1cc(F)c(F)c(F)c1 [Compound I-0869] | < 100 nM | < 100 nM | 
CNC(=O)c1ccc(Cl)c(-c2cc3c(c4c2CCO4)c(=O)n(Cc2ncn(C)n2)c(=O)n3Cc2cc(F)c(F)c(Cl)c2)n1 [Compound I-0870] | < 100 nM | < 100 nM | 
Cn1cnc(Cn2c(=O)c3c4c(c(N5CCCC5=O)cc3n(Cc3cc(F)c(F)c(Cl)c3)c2=O)CCO4)n1 [Compound I-0871] |  | 6.6 nM | EC50 (SARS-CoV-2; [3]): 11 nM
COc1nc(-c2c(Cl)ccc3c2CCN(C)C3=O)cc2c1c(=O)n(Cc1ncn(C)n1)c(=O)n2Cc1cc(F)c(F)c(Cl)c1 [Compound I-0874] |  | 9.4 nM | EC50 (SARS-CoV-2; [3]): 39.2 nM
COc1cc(-c2cc3c(C(F)(F)F)n[nH]c3cc2Cl)cc2c1c(=O)n(Cc1ncn(C)n1)c(=O)n2Cc1cc(F)c(F)c(F)c1 [Compound I-0875] | < 100 nM | < 100 nM | 
[2H]C([2H])([2H])N1CCc2c(ccc(Cl)c2-c2cc(OC)c3c(=O)n(Cc4ncn(C)n4)c(=O)n(Cc4cc(F)c(F)c(F)c4)c3c2)C1=O [Compound I-0876] | < 100 nM | < 100 nM | 
CNC(=O)c1ccc(Cl)c(-c2cc3c(nc2OC)c(=O)n(Cc2ncn(C)n2)c(=O)n3Cc2cc(F)c(F)c(Cl)c2)n1 [Compound I-0878] |  | 3.9 nM | EC50 (SARS-CoV-2; [3]): 13.7 nM
COc1nc2c(=O)n(Cc3ncn(C)n3)c(=O)n(Cc3cc(F)c(F)c(Cl)c3)c2cc1-c1nc(C(F)F)ccc1Cl [Compound I-0879] | < 100 nM | < 100 nM | 
COc1nc2c(=O)n(Cc3ncn(C)n3)c(=O)n(Cc3cc(F)c(F)c(Cl)c3)c2cc1-c1nc(C(C)(C)O)ccc1Cl [Compound I-0880] |  | 4.4 nM | EC50 (SARS-CoV-2; [3]): 17.8 nM
CNC(=O)c1nc(-c2cc3c(nc2OC)c(=O)n(Cc2ncn(C)n2)c(=O)n3Cc2cc(F)c(F)c(Cl)c2)c(Cl)cc1F [Compound I-0881] | < 100 nM | < 100 nM | 
COc1nc2c(=O)n(Cc3ncn(C)n3)c(=O)n(Cc3cc(Cl)c(F)cc3C)c2cc1-c1nc(C(C)(C)O)ccc1Cl [Compound I-0882] | < 100 nM | < 100 nM | 
COc1nc2c(=O)n(Cc3ncn(C)n3)c(=O)n(Cc3cc(F)c(F)c(Cl)c3)c2cc1-c1nc(C(=O)NC(C)C)ccc1Cl [Compound I-0883] |  | 3.3 nM | EC50 (SARS-CoV-2; [3]): 30.2 nM
COc1nc2c(=O)n(Cc3ncn(C)n3)c(=O)n(Cc3cc(Cl)c(F)cc3C)c2cc1-c1nc(C(F)F)ccc1Cl [Compound I-0884] | < 100 nM | < 100 nM | 
COc1nc2c(=O)n(Cc3ncn(C)n3)c(=O)n(Cc3cc(F)c(F)c(Cl)c3)c2cc1-c1nc(C(=O)NC2COC2)ccc1Cl [Compound I-0885] | < 100 nM | < 100 nM | 
COc1nc2c(=O)n(Cc3ncn(C)n3)c(=O)n(Cc3cc(F)c(F)c(Cl)c3)c2cc1-c1nc(C(=O)NC2(C)COC2)ccc1Cl [Compound I-0886] | < 100 nM | < 100 nM | 
COc1nc2c(=O)n(Cc3ncn(C)n3)c(=O)n(Cc3cc(F)c(F)c(Cl)c3)c2cc1-c1cc(N=S(C)(C)=O)ccc1Cl [Compound I-0887] |  | 9.8 nM | EC50 (SARS-CoV-2; [3]): 98.2 nM
COc1cc(-c2cc(C#N)ccc2Br)cc2c1c(=O)n(Cc1ncn(C)n1)c(=O)n2Cc1cc(F)c(F)c(F)c1 [Compound I-0891] |  | 10 nM | EC50 (SARS-CoV-2; [3]): 12.1 nM
COc1cc(-c2cc(P(C)(C)=O)ccc2Cl)cc2c1c(=O)n(Cc1ncn(C)n1)c(=O)n2Cc1cc(F)c(F)c(F)c1 [Compound I-0893] |  | 36 nM | EC50 (SARS-CoV-2; [3]): 2330 nM
COc1ccc(Cl)c(-c2cc(OC)c3c(=O)n(Cc4ncn(C)n4)c(=O)n(Cc4cc(F)c(F)c(F)c4)c3c2)n1 [Compound I-0895] | 100 to 1000 nM | < 100 nM | 
COc1cc(-c2cc3cc[nH]c3cc2Cl)cc2c1c(=O)n(Cc1ncn(C)n1)c(=O)n2Cc1cc(F)c(F)c(F)c1 [Compound I-0901] | < 100 nM | < 100 nM | 
COc1cc(-c2cc3c(C#N)c[nH]c3cc2Cl)cc2c1c(=O)n(Cc1ncn(C)n1)c(=O)n2Cc1cc(F)c(F)c(F)c1 [Compound I-0902] |  | 8.2 nM | EC50 (SARS-CoV-2; [3]): 104 nM
COc1cc(-c2ccc(CC#N)cc2Cl)cc2c1c(=O)n(Cc1ncn(C)n1)c(=O)n2Cc1cc(F)c(F)c(F)c1 [Compound I-0907] | 100 to 1000 nM | < 100 nM | 
COc1cc(-c2cn3nncc3cc2Cl)cc2c1c(=O)n(Cc1ncn(C)n1)c(=O)n2Cc1cc(F)c(F)c(F)c1 [Compound I-0914] | < 100 nM | < 100 nM | 
[2H]C([2H])([2H])n1cnc(Cn2c(=O)c3c(OC)nc(N4CC[C@@H](F)C4)cc3n(Cc3cc(F)c(F)c(F)c3)c2=O)n1 [Compound I-0917] | < 100 nM |  | IC50 (SARS-CoV-2 3CL protease; [4]): < 100 nM
COc1nc(N2[C@@H]3CC[C@H]2CNC3)cc2c1c(=O)n(-c1cc(C)cnn1)c(=O)n2Cc1cc(F)c(F)c(F)c1 [Compound I-0926] |  |  | EC50 (SARS-CoV-2): 106 nM; IC50 (SARS-CoV-2 3CL protease; [4]): 5.1 nM

Structure (SMILES) | EC50 (SARS-CoV-2; [1]) | IC50 (SARS-CoV-2 3CL protease; [2]) | other results
CCn1cnc(Cn2c(=O)c3c(OC)nc(N4CC[C@@H](F)C4)cc3n(Cc3cc(F)c(F)c(F)c3)c2=O)n1 [Compound I-0927] | < 100 nM | < 100 nM | 
COc1nc(-c2cc(C#N)ccc2Cl)cc2c1c(=O)n(-c1cc(C)cnn1)c(=O)n2Cc1cc(F)c(F)c(F)c1 [Compound I-0929] | < 100 nM | < 100 nM | 
Cn1cnc(Cn2c(=O)c3c(=O)n(C)c(N4C[C@@H]5CC[C@H]4C5)cc3n(Cc3cc(F)c(F)c(Cl)c3)c2=O)n1 [Compound I-0930] | 100 to 1000 nM | < 100 nM | 
Cn1cnc(Cn2c(=O)c3c(=O)n(C)c(N4CCC(F)(F)C4)cc3n(Cc3cc(F)c(F)c(Cl)c3)c2=O)n1 [Compound I-0931] | 100 to 1000 nM | < 100 nM | 
Cn1cnc(Cn2c(=O)c3c4nccnc4c(N4CCCC4)cc3n(Cc3cc(F)c(F)c(F)c3)c2=O)n1 [Compound I-0932] | < 100 nM | < 100 nM | 
Cn1cnc(Cn2c(=O)c3c4nccnc4c(-c4cc5c(cc4Cl)NC(=O)C5)cc3n(Cc3cc(F)c(F)c(F)c3)c2=O)n1 [Compound I-0933] | 100 to 1000 nM | < 100 nM | 
Cn1cnc(Cn2c(=O)c3c4nccnc4c(-c4cc(C#N)ccc4Cl)cc3n(Cc3cc(F)c(F)c(F)c3)c2=O)n1 [Compound I-0934] | < 100 nM | < 100 nM | 
COc1nc(N2CC[C@@H](C#N)C2)cc2c1c(=O)n(-c1cncc(Cl)c1)c(=O)n2-c1ccc(F)c(Cl)c1 [Compound I-0936] |  | 1.1 nM | EC50 (SARS-CoV-2; [3]): 5.34 nM
[2H]C([2H])([2H])O[C@@H]1CCN(c2cc3c(c(OC)n2)c(=O)n(-c2cncc(C)c2)c(=O)n3-c2ccc(F)c(Cl)c2)C1 [Compound I-0937] |  | 1.3 nM | EC50 (SARS-CoV-2; [3]): 5.56 nM
COc1nc(N2CC[C@@H](C#N)C2)cc2c1c(=O)n(-c1cncc(F)c1)c(=O)n2-c1ccc(F)c(Cl)c1 [Compound I-0938] | < 100 nM | < 100 nM | 
COc1nc(N2CC[C@@H](C#N)C2)cc2c1c(=O)n(-c1cncc(C#N)c1)c(=O)n2-c1ccc(F)c(Cl)c1 [Compound I-0939] | < 100 nM | < 100 nM | 
COc1nc(N2C[C@@H]3C[C@H]2CO3)cc2c1c(=O)n(-c1cncc(C#N)c1)c(=O)n2-c1ccc(F)c(Cl)c1 [Compound I-0940] |  | 1.7 nM | EC50 (SARS-CoV-2; [3]): 5.66 nM
COc1nc(N2CC[C@@H](C#N)C2)cc2c1c(=O)n(-c1cncc(OCF)c1)c(=O)n2-c1ccc(F)c(Cl)c1 [Compound I-0941] | < 100 nM | < 100 nM | 
[2H]C([2H])([2H])O[C@@H]1CCN(c2cc3c(c(OC)n2)c(=O)n(-c2cnc4cc(F)ccn24)c(=O)n3-c2cc(F)c(F)c(Cl)c2)C1 [Compound I-0942] | < 100 nM | < 100 nM | 
COc1nc(N2C[C@@H]3C[C@H]2CO3)cc2c1c(=O)n(-c1cnc3cc(F)ccn13)c(=O)n2-c1ccc(F)c(Cl)c1 [Compound I-0943] | < 100 nM | < 100 nM | 
COc1nc(N2CC[C@@H](O)C2)cc2c1c(=O)n(-c1cncc(Cl)c1)c(=O)n2-c1ccc(F)c(Cl)c1 [Compound I-0944] | < 100 nM | < 100 nM | 
COc1nc(N2CC[C@@H](C#N)C2)cc2c1c(=O)n(-c1cncc(C(F)F)c1)c(=O)n2-c1ccc(F)c(Cl)c1 [Compound I-0945] | < 100 nM | < 100 nM | 
COc1nc(N2CC[C@@H](C#N)C2)cc2c1c(=O)n(-c1cnc3cc(F)c(F)cn13)c(=O)n2-c1ccc(F)c(Cl)c1 [Compound I-0946] | < 100 nM | < 100 nM | 
[2H]C([2H])([2H])O[C@@H]1CCN(c2cc3c(c(OC)n2)c(=O)n(-c2cncc(C#N)c2)c(=O)n3-c2ccc(F)c(Cl)c2)C1 [Compound I-0948] | < 100 nM | < 100 nM | 
COc1nc(N2CC[C@@H](C#N)C2)cc2c1c(=O)n(-c1cncc(Cl)c1)c(=O)n2-c1ccc(F)c(F)c1 [Compound I-0949] | < 100 nM | < 100 nM | 
COc1nc(N2[C@@H]3CC[C@H]2CNC3)cc2c1c(=O)n(-c1cnc3cc(F)c(Cl)cn13)c(=O)n2-c1ccc(F)c(Cl)c1 [Compound I-0950] |  |  | EC50 (SARS-CoV-2; read-out: EC50 (50% SARS-CoV-2 infected cell death inhibitory concentration)): < 100 nM; IC50 (SARS-CoV-2 3CL protease; [4]): < 100 nM
COc1nc(N2CC[C@@H](C#N)C2)cc2c1c(=O)n(-c1cncc(OC(F)F)c1)c(=O)n2-c1ccc(F)c(Cl)c1 [Compound I-0951] | < 100 nM | < 100 nM | 
COc1nc(N2CC[C@@H](O)C2)cc2c1c(=O)n(-c1cnc3cc(F)c(Cl)cn13)c(=O)n2-c1ccc(F)c(Cl)c1 [Compound I-0952] | < 100 nM | < 100 nM | 
[2H]C([2H])([2H])O[C@@H]1CCN(c2cc3c(c(OC)n2)c(=O)n(-c2cncc(F)c2)c(=O)n3-c2ccc(F)c(Cl)c2)C1 [Compound I-0953] | < 100 nM | < 100 nM | 
